Results as given in patent publication US20230158071A1, “TUMOR COMBINED IMMUNOTHERAPY” (CRAGE medical Co., Limited, priority 2018, published 2023).

Key:
E0771ERVIII cells = assay: In vitro proliferation of E0771ERVIII cells (veliparib, JQ1); assay type: cell-based, mouse
Excerpt: (§1) Another small molecule drug JQ1 is a BET bromodomain inhibitor acting on BRD4, it may induce tumor cell apoptosis (i.e., slow proliferation) by targeted inhibition of BRD4, thereby achieving anti-tumor effects.

mouse CAR-T cells = assay: In vitro proliferation of mouse CAR-T cells (veliparib, JQ1); assay type: cell-based
Excerpt: as §1

CART cells = assay: LDH cell killing experiment with veliparib; assay type: cell-based; settings: 100 μM
Excerpt: as §1

mouse T cells = assay: In vitro proliferation of mouse T cells (JQ1); assay type: cell-based; settings: JQ1, dose-dependent manner
Excerpt: as §1

Compound | concentration level that may affect the proliferation level of E0771ERVIII cells (E0771ERVIII cells; in vitro) [µM] | concentration that may significantly inhibit the proliferation of E0771ERVIII cells (E0771ERVIII cells; in vitro) [µM] | proliferation of mouse CAR-T cells (mouse CAR-T cells; veliparib at 20 μM or more) | killing effect of CART cells (CART cells) | proliferation of E0771ERVIII cells (E0771ERVIII cells; different concentrations of JQ1 for 48 h) | proliferation of CAR-T cells (mouse CAR-T cells; JQ1, dose-dependent manner) | proliferation of mouse T cells (mouse T cells)
C[C@]1(c2nc3c(C(N)=O)cccc3[nH]2)CCCN1 [veliparib] | ≥ 10 | ≥ 20 | significantly inhibit | could not improve | – | – | –
Cc1sc2c(c1C)C(c1ccc(Cl)cc1)=N[C@@H](CC(=O)OC(C)(C)C)c1nnc(C)n1-2 [JQ1] | – | – | – | – | could not inhibit | significantly inhibit | significantly inhibit
